Values quoted from earlier work in patent US20160129117A1, “Novel Boronic Acid Compound Preparation” (NIPPON KAYAKU KABUSHIKI KAISHA, priority 2013, published 2016).
Like-named read-outs stand apart in the source and are kept apart here.

Assays:
[1] = in vivo

For CC(C)C[C@H](NC(=O)[C@H](Cc1ccccc1)NC(=O)c1cnccn1)B(O)O [bortezomib], the “incidence of grade 3 peripheral neuropathy” value (intravenous administration) is listed as 16%, the “incidence of grade 3 peripheral neuropathy” value (subcutaneous administration) is listed as 6% and the “total dose causing the peripheral nerve toxicity” value [1] is listed as “about 30 mg/m^2”.
